Results published in ChEMBL document CHEMBL4017472, “New modified 2-aminobenzimidazole nucleosides: Synthesis and evaluation of their activity against herpes simplex virus type 1” (Bioorg Med Chem Lett, 2017).

Tests used:
[1] = Cytotoxicity against African green monkey Vero E6 cells measured after 3 days by trypan blue assay; format: cell-based, Vero C1008; conditions: chlorocebus sabaeus
Human alphaherpesvirus 1 [2] = assay: Antiviral activity against HSV1 L2 infected in African green monkey Vero E6 cells assessed as reduction in virus-induced cytopathic effect; format: functional; conditions: Human alphaherpesvirus 1, L2, Vero C1008
[3] = Selectivity index, ratio of MCC for African green monkey Vero E6 cells to IC50 for HSV-1 L2 infected in African green monkey Vero E6 cells; set-up: species or system Vero C1008
Human alphaherpesvirus 1 [4] = assay: Antiviral activity against acyclovir-resistant HSV-1 L2 infected in African green monkey Vero E6 cells assessed as reduction in virus-induced cytopathic effect; format: functional; conditions: Human alphaherpesvirus 1, L2, Vero C1008
[5] = Selectivity index, ratio of MCC for African green monkey Vero E6 cells to IC50 for acyclovir-resistant HSV-1 L2 infected in African green monkey Vero E6 cells; set-up: species or system Vero C1008
Human alphaherpesvirus 1 [6] = assay: Antiviral activity against HSV-1 L2/Rp-ACV/2 infected in African green monkey Vero E6 cells assessed as reduction in virus-induced cytopathic effect; format: functional; conditions: Human alphaherpesvirus 1, L2/Rp-ACV/2, Vero C1008
[7] = Selectivity index, ratio of MCC for African green monkey Vero E6 cells to IC50 for HSV-1 L2/Rp-ACV/2 infected in African green monkey Vero E6 cells; set-up: species or system Vero C1008
Human alphaherpesvirus 1 [8] = assay: Antiviral activity against foscarnet-resistant HSV-1 F+ infected in African green monkey Vero E6 cells assessed as reduction in virus-induced cytopathic effect; format: functional; conditions: Human alphaherpesvirus 1, F+, Vero C1008
[9] = Selectivity index, ratio of MCC for African green monkey Vero E6 cells to IC50 for HSV-1 F+ infected in African green monkey Vero E6 cells; set-up: species or system Vero C1008
Human alphaherpesvirus 1 [10] = assay: Antiviral activity against acyclovir and foscarnet-resistant HSV-1 L2 infected in African green monkey Vero E6 cells assessed as reduction in virus-induced cytopathic effect; format: functional; conditions: Human alphaherpesvirus 1, L2, Vero C1008
[11] = Selectivity index, ratio of MCC for African green monkey Vero E6 cells to IC50 for acyclovir and foscarnet-resistant HSV-1 L2 infected in African green monkey Vero E6 cells; set-up: species or system Vero C1008
Human alphaherpesvirus 1 [12] = assay: Antiviral activity against acyclovir and cidofovir-resistant HSV-1 L2 infected in African green monkey Vero E6 cells assessed as reduction in virus-induced cytopathic effect; format: functional; conditions: Human alphaherpesvirus 1, L2, Vero C1008
[13] = Selectivity index, ratio of MCC for African green monkey Vero E6 cells to IC50 for acyclovir and cidofovir-resistant HSV-1 L2 infected in African green monkey Vero E6 cells; set-up: species or system Vero C1008

Row | SMILES | MCC at 72 h [1] [µM] | IC50 (Human alphaherpesvirus 1 [2]) [µM] | IC95 (Human alphaherpesvirus 1 [2]) [µM] | Selectivity Index [3] | IC50 (Human alphaherpesvirus 1 [4]) [µM] | IC95 (Human alphaherpesvirus 1 [4]) [µM] | Selectivity Index [5] | IC50 (Human alphaherpesvirus 1 [6]) [µM] | IC95 (Human alphaherpesvirus 1 [6]) [µM] | Selectivity Index [7] | IC50 (Human alphaherpesvirus 1 [8]) [µM] | IC95 (Human alphaherpesvirus 1 [8]) [µM] | Selectivity Index [9] | IC50 (Human alphaherpesvirus 1 [10]) [µM] | IC95 (Human alphaherpesvirus 1 [10]) [µM] | Selectivity Index [11] | IC50 (Human alphaherpesvirus 1 [12]) [µM] | IC95 (Human alphaherpesvirus 1 [12]) [µM] | Selectivity Index [13]
1 | CC(C)Nc1nc2cc(Cl)c(Cl)cc2n1[C@H]1O[C@@H](CO)[C@H](O)[C@@H]1O [MARIBAVIR] | 665 | 665 | > 665 | 1 | – | – | – | – | – | – | – | – | – | – | – | – | – | – | –
2 | Nc1ccn(C[C@@H](CO)OCP(=O)(O)O)c(=O)n1.O.O [CIDOFOVIR] | > 358 | 14 | 55.9 | >26 | 14 | 55.9 | >26 | 1.8 | 27.9 | >204 | 27.9 | 448 | >13 | 7 | 27.9 | >51 | 112 | 895 | >6.4
3 | O.O.O.O.O.O.O=C([O-])P(=O)([O-])[O-].[Na+].[Na+].[Na+] | 833 | 104 | 208 | 8 | 104 | 208 | 8 | 52 | 104 | 16 | 833 | > 833 | 1 | 417 | > 833 | 2 | 104 | 208 | 8
4 | NC(=O)c1ncn([C@@H]2O[C@H](CO)[C@@H](O)[C@H]2O)n1 [RIBAVIRIN] | > 4100 | 512 | 2050 | >8 | 1020 | > 4100 | >4 | 1020 | > 4100 | >4 | – | > 4100 | >4 | 1020 | > 4100 | >4 | 1020 | > 4100 | >4
5 | Nc1nc2cc(F)c(F)cc2n1[C@H]1C[C@H](O)[C@@H](CO)O1 | > 3500 | 876 | 3510 | >4 | – | – | – | – | – | – | – | – | – | – | – | – | – | – | –
6 | Nc1nc2c(ncn2COCCO)c(=O)[nH]1 [ACYCLOVIR] | > 444 | 1.73 | 6.9 | >256 | > 444 | > 444 | >1 | 27.8 | 111 | 16 | 3.5 | 13.9 | >128 | > 444 | > 444 | >1 | 17.3 | 139 | >26
